Values after ≈ are worked out from the molar mass of the structure shown.

Test [1] concerns Mycobacterium tuberculosis. The test can be described thus: Antimycobacterial activity against multidrug-resistant Mycobacterium tuberculosis 43 assessed as growth inhibition after 45 days by Lowenstein-Jensen method. In kind it is functional.
In test [2] the test system is Mycobacterium tuberculosis. As to the kind of experiment: Antimycobacterial activity against multidrug-resistant Mycobacterium tuberculosis 43 assessed as bacterial growth at 5 uM after 45 days by Lowenstein-Jensen method. In kind it is functional.

As to `CC[C@H](CO)NC(=S)NC(=O)CCc1ccccc1`, the MIC in test [1] was greater than 17.8 µM. In addition, in test [2], the Activity is reported as 100%. In the same order, the values of `CC[C@H](CO)NC(=S)NC(=O)/C=C/c1ccccc1` are greater than 18 µM and 100%. Consider `CC[C@H](CO)NC(=S)NC(=O)c1ccc(N(C)C)cc1`, for which the MIC in test [1] was greater than 16.9 µM. Further, the Activity in test [2] worked out at 100%.

Take `CC[C@H](CO)NC(=S)NC(=O)c1ccccc1O`: in test [1], the MIC came out at 7.46 µM (≈ 2 µg/mL).
